Structures can show the parent of a compound that is named as a salt.

Here are results for two molecules from US20120122832A1, “METHOD OF MAKING CEFQUINOME PARTICLES” (priority 2009, published 2012).

Data set [1] in a line: Particle size distribution (PSD) of precipitated cefquinome sulfate particles by laser light scattering. It counts as physicochemical.
A short description of data set [2]: Particle size distribution of ethyl oleate formulations, Malvern Master Sizer with Hydro 2000G cell, Frauenhofer method. Type of data set: physicochemical. Particulars: Table 1, Malvern Master Sizer. The method, then: The particle size was determined with a Malvern Master Sizer GMAL 01 with the Hydro 2000G measuring cell according to Frauenhofer method.
Setting [3] is: 1 minute stirring only in the measurement equipment.
Where [4] appears, read: 10 minutes stirring + 6 minutes of ultrasound.
Where [5] appears, read: 10 minutes stirring only in the measurement equipment.

Consider `CO/N=C(\C(=O)N[C@@H]1C(=O)N2C(C(=O)[O-])=C(C[n+]3cccc4c3CCCC4)CS[C@H]12)c1csc(N)n1` [Example 8, Cefquinome sulfate], for which the “PSD D(50)” value in data set [1] (setting [3]) came to 4.78 μm; in data set [1] (setting [4]), 0.15 μm; in data set [1] (setting [5]), 3.34 μm. The “PSD D(100)” value in data set [1] (setting [3]) came out at 239.9 μm; in data set [1] (setting [4]), 5.01 μm; in data set [1] (setting [5]) it was 11.48 μm. For the same molecule, the “PSD DE(90)” value in data set [1] (setting [3]) is on record as 66.97 μm; in data set [1] (setting [4]), 1.98 μm; in data set [1] (setting [5]), 5.95 μm.

With `CO/N=C(\C(=O)N[C@@H]1C(=O)N2C(C(=O)[O-])=C(C[n+]3cccc4c3CCCC4)CS[C@H]12)c1csc(N)n1` [prior art non micronized material, cefquinome sulphate], in data set [2], the “D(0.50)” value amounted to 63.01 μm, the “D(0.90)” value is 114.75 μm and the “D(100)” value turned out to be 178.25 μm.
